Our source for the IC50 values is ChEMBL document CHEMBL5143605, “Discovery of 4-phenylindolines containing a (5-cyanopyridin-3-yl)methoxy moiety as potent inhibitors of the PD-1/PD-L1 interaction” (Bioorg Med Chem Lett, 2022).

A value given as a limit tells only on which side of the number the result lay.

The target of the experiment is Programmed cell death protein 1/Programmed cell death 1 ligand 1 (Homo sapiens, UniProt Q15116+Q9NZQ7). Briefly: Inhibition of Tag2-PD1/Tag1-PD-L1 (unknown origin) protein-protein interaction preincubated for 15 mins followed by addition of anti-Tag1-Eu3+ and anti-Tag2-XL665 and measured after 2 hrs by HTRF analysis. It counts as protein-complex assay. A general note: TR-FRET usually uses a lanthanide donor and a delayed reading to cut background.
Sequence of Programmed cell death protein 1/Programmed cell death 1 ligand 1 (Q15116 whole entry): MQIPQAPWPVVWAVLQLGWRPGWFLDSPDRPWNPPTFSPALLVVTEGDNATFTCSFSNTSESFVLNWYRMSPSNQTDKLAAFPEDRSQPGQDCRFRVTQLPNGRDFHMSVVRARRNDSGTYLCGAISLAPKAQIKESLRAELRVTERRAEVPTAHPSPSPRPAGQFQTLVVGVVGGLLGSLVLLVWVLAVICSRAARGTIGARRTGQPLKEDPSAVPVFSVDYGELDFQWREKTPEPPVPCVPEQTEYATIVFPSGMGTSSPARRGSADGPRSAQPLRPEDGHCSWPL
Sequence of Programmed cell death protein 1/Programmed cell death 1 ligand 1 (Q9NZQ7 whole entry): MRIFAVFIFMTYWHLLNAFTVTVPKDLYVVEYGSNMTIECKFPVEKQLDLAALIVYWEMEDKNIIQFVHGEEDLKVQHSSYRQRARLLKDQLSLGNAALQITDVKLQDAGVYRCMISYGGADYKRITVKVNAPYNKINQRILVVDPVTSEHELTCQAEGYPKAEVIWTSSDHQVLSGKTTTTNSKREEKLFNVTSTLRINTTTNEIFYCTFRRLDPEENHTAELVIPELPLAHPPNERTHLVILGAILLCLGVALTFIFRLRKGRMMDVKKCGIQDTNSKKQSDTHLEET
As for `N#Cc1cncc(COc2cc(C(=O)N3CCc4c(-c5ccccc5)cccc43)ccc2CN2CC[C@H](O)C2)c1`, the 50% inhibitory concentration (IC50) came to 74.6 nM. The figure for `O=C(c1ccc(CNCCO)cc1)N1CCc2c(-c3cnc4[nH]ccc4c3)cccc21` is 876 nM. As to `O=C(c1ccc(CNCCO)cc1)N1CCc2c(-c3ccc4nccnc4c3)cccc21`, the IC50 is > 5000 nM. The figure for `O=C(c1ccc(CNCCO)cc1)N1CCc2c(-c3ccncc3)cccc21` is > 5000 nM; for `N#Cc1cncc(COc2cc(C(=O)N3CCc4c(-c5ccccc5)cccc43)ccc2CNC2CCOCC2)c1` it is 378 nM; for `CC(=O)NCCNCc1ccc(C(=O)N2CCc3c(-c4ccccc4)cccc32)cc1OCc1ccnc(C#N)c1` it is 308 nM. `N#Cc1cncc(COc2cc(C(=O)N3CCc4c(-c5ccccc5)cccc43)ccc2CN2CC[C@@H](CO)C2)c1` had an IC50 of 132 nM. In turn, `N#Cc1cncc(COc2cc(C(=O)N3CCc4c(-c5ccccc5)cccc43)ccc2CNCCO)c1` displayed an IC50 of 87.3 nM. The figure for `N#Cc1cc(COc2cc(C(=O)N3CCc4c(-c5ccccc5)cccc43)ccc2CNCCO)ccn1` is 105 nM; for `O=C(c1ccc(CNCCO)cc1)N1CCc2c(-c3ccc4ocnc4c3)cccc21` it is 192 nM; for `CC(=O)NCCNCc1ccc(S(=O)(=O)N2CCc3c(-c4ccccc4)cccc32)cc1` it is > 5000 nM. Compound `N#Cc1cncc(COc2cc(C(=O)N3CCc4c(-c5ccccc5)cccc43)ccc2CN2CC[C@H](CO)C2)c1` yielded an IC50 of 128 nM. `N#Cc1cncc(COc2cc(C(=O)N3CCc4c(-c5ccccc5)cccc43)ccc2CN2CC[C@@H](O)C2)c1` returned an IC50 of 124 nM. For the compound `CC(C)(CO)NCc1ccc(C(=O)N2CCc3c(-c4ccccc4)cccc32)cc1OCc1cncc(C#N)c1`, the IC50 came to 116 nM. The figure for `N#Cc1cncc(COc2cc(C(=O)N3CCc4c(-c5ccccc5)cccc43)ccc2CN2CC[C@H](C(=O)O)C2)c1` is 53.2 nM; for `CN(CCO)Cc1ccc(C(=O)N2CCc3c(-c4ccccc4)cccc32)cc1OCc1cncc(C#N)c1` it is 60.1 nM. `COCCNCc1ccc(C(=O)N2CCc3c(-c4ccccc4)cccc32)cc1OCc1cncc(C#N)c1` registered an IC50 of 251 nM. The figure for `CC(C)(CO)NCc1ccc(C(=O)N2CCc3c(-c4ccccc4)cccc32)cc1OCc1ccnc(C#N)c1` is 229 nM; for `COc1cc(C(=O)N2CCc3c(-c4ccccc4)cccc32)ccc1CNCCO` it is 161 nM. In the case of `O=C(c1ccc(CNCCO)cc1)N1CCc2c(-c3cccc4[nH]ccc34)cccc21` it was 635 nM; in that of `COc1cccc(-c2cccc3c2CCN3C(=O)c2ccc(CNCCO)cc2)n1`, > 5000 nM; in that of `CC(C)(CO)NCc1ccc(S(=O)(=O)N2CCc3c(-c4ccccc4)cccc32)cc1`, > 5000 nM.

Compound `CC(=O)NCCNCc1ccc(C(=O)N2CCc3c(-c4ccccc4)cccc32)cc1OCc1cncc(C#N)c1` had an IC50 of 154 nM.

For `N#Cc1cncc(COc2cc(C(=O)N3CCc4c(-c5ccccc5)cccc43)ccc2CN2CCC[C@H]2C(=O)O)c1`, the IC50 came out at 626 nM. Compared with the last compound, the IC50 is about 4.1-fold higher.

For orientation: IC50 means the concentration that gives 50% inhibition. A lower IC50 goes with greater potency.
